# Data published in patent publication US20250064808A1, “METHODS FOR THE TREATMENT OF NLRP3 RELATED DISORDERS” (priority 2022, published 2025).
# Assays:
# BMDM [1] = test: cytosolic mtDNA (qPCR after cellular fractionation) in BMDM; assay type: cell-based, mouse; details: LPS-primed BMDM, compound 10 μM 16 h, ATP 4 mM 1 h
# Description: (§1) Bone marrow cells were cultured in high glucose DMEM supplemented with 10% FBS, 20% L929-cell conditioned medium, and 100 U/mL penicillin-streptomycin for 7-10 days at 37° C. with 5% CO2 (Hornung et al., 2008).
# (§2) BMDM were stimulated as indicated. […] Briefly, BMDM were washed with PBS and harvested, 10% of which were saved for DNA extraction of whole cells. The remaining BMDM resuspended with pre-chilled mitochondrial extraction buffer 1 (220 mM mannitol, 70 mM sucrose, 20 mM HEPES-KOH, pH 7.5, 1 mM EDTA and 2 mg/mL bovine serum albumin) supplemented with a protease inhibitor cocktail and a phosphatase inhibitor cocktail were passed through a 25-G syringe (BD Biosciences) 20 times on ice. The homogenized cells were centrifuged at 1000×g for 15 minutes at 4° C. The supernatant was further centrifuged at 10,000×g for 10 minutes at 4° C. to pellet the mitochondria from supernatant cytosolic fraction. qPCR was performed after DNA purification with AllPrep DNA/RNA Mini Kit according to manufacturer's instructions, from both whole cell extracts and cytosolic fractions using mtDNA primers (D-loop, Cox1, non-NUMT), or after DNA purification from whole cell extracts using nuclear DNA primers (Tert, 18S, B2m). The Ct values obtained for mtDNA abundance in whole cell extracts served as normalization controls for the mtDNA values obtained from the cytosolic fractions. For the measurement of Ox-mtDNA, purified mtDNA was extracted from the cytosolic or mitochondrial fractions as indicated. The 8-OH-dG content was then quantified using 8-hydroxy 2-deoxyguanosine ELISA Kit, per manufacturer's instructions.
# NLRP3 inflammasome [2] = test: NLRP3 inflammasome activation (Casp1 p20 and mature IL-1β, IB and ELISA) in BMDM; assay type: cell-based, mouse; details: LPS-primed BMDM, compound pretreatment 16 h, challenged with NLRP3 activators
# Text: Paired antibodies (capture and detection) and standard recombinant mouse IL-1β and TNF were used to determine mouse cytokine concentrations according to manufacturer's instructions.
# BMDM [3] = test: stimulation of naive recipient BMDM by cell-free mtDNA (cytokine and ISG mRNA, qPCR); assay type: cell-based, mouse; details: recipient BMDM incubated 24 h with DNA from compound-pretreated donor BMDM; cytokine and ISG mRNAs
# Description: RNA was extracted using AllPrep DNA/RNA Mini kit, and cDNA was synthesized using SuperScript™ VILO™ cDNA Synthesis Kit. mRNA expression was determined by QPCR in a CFX96 thermal cycler (Biorad) as described (Xian et al., 2021). Data are presented in arbitrary units and calculated by the 2^(−ΔΔCT) method. Primer sequences were obtained from the NIH qPrimerDepot (http://mouseprimerdepot.nci.nih.gov) and provided by Integrated DNA technologies.
# Extracellular DNA of donor macrophages (1500,000 cells per group) was isolated using QIAamp Circulating Nucleic Acid Kit according to manufacturer's instructions and then eluted in 300 μL distilled H2O and quantified using spectrophotometric analysis at 260/280 nm with Nanodrop. DNA amounts purified among the different treatment groups vary. The DNA amount secreted from LPS-primed donor BMDM is low, approximately at 0.1 μg. The amount of DNA released by LPS-primed donor BMDM challenged with ATP is about 1.3 μg, while the amount of DNA released by LPS-primed donor BMDM challenged with nigericin is around 2 μg. The amount of DNA secreted by LPS-primed donor BMDM challenged with MSU or alum is about 0.7 μg. Applicant used 5% of the prepared DNA for qPCR measurement of extracellular mtDNA and the remaining 95% were added to the recipient BMDM for analyzing the paracrine immunostimulatory effects.
# BMDM [4] = test: cytosolic Ox-mtDNA (8-OH-dG ELISA of cytosolic mtDNA) in BMDM; assay type: cell-based, mouse; details: LPS-primed BMDM, compound 10 μM 16 h, ATP 4 mM 1 h
# Description: as §1, §2
# BMDM [5] = test: total mtDNA (LPS-stimulated mtDNA synthesis, qPCR) in BMDM; assay type: cell-based, mouse; details: compound 10 μM 16 h, before or after LPS priming
# Text: Nuclear DNA encoding telomerase reverse transcriptase (Tert), 18S ribosomal RNA and β2 microglobulin (B2m) was used for normalization.
# NLRP3 inflammasome [6] = test: alum-induced peritonitis in mice; assay type: in vivo, mouse
# Description: 8-12-week-old male C57BL/6 mice and WT or mt-Ogg1Tg mice were allocated randomly and i.p. injected with alum (1 mg dissolved in 0.2 mL sterile PBS) or PBS. Peritoneal lavage was collected 4 h post-injection to measure cytokine amounts by ELISA. […] Neutrophils (CD11b^+Ly6G^+F4/80^−) and monocytes (CD11b^+Ly6C^+Ly6G^−) present in peritoneal lavage fluid were quantified by flow cytometry. For blocking Fc-mediated interactions, mouse cells were pre-incubated with 0.5-1 μg of purified anti-mouse CD16/CD32 per 100 μL. Isolated cells were stained with labelled antibodies in PBS with 2% FCS and 2 mM EDTA or cell staining buffer (Biolegend). Dead cells were excluded based on staining with propidium iodide (PI). Absolute numbers of immune cell subtypes in the peritoneum were calculated by multiplying total peritoneal cell numbers by percentages of immune cell subtypes amongst total cells. Cells were analyzed on a Beckman Coulter Cyan ADP flow cytometer. Paired antibodies (capture and detection) and standard recombinant mouse IL-1β and TNF were used to determine mouse cytokine concentrations according to manufacturer's instructions.
# BMDM [7] = test: extracellular (cell-free) mtDNA released by donor BMDM; assay type: cell-based, mouse; details: LPS-primed donor BMDM pretreated with compound, challenged with ATP or nigericin
# Description: Extracellular DNA of donor macrophages (1500,000 cells per group) was isolated using QIAamp Circulating Nucleic Acid Kit according to manufacturer's instructions and then eluted in 300 μL distilled H2O and quantified using spectrophotometric analysis at 260/280 nm with Nanodrop. […] Applicant used 5% of the prepared DNA for qPCR measurement of extracellular mtDNA and the remaining 95% were added to the recipient BMDM for analyzing the paracrine immunostimulatory effects.
# [8] = ccf-mtDNA and Fpg-sensitive Ox-mtDNA in peritoneal exudates of alum-challenged mice; assay type: in vivo, mouse; details: FEN1-IN-4 40 mg/kg, exudates 4 and 16 hrs post-challenge
# BMDM [9] = test: 8-OH-dG content of mtDNA from mitochondria of BMDM; details: LPS-primed BMDM, FEN1-IN-4 pretreatment, ATP or nigericin
# Description: as §1, §2
# STING = STING Ser365 phosphorylation (puncta by immunofluorescence, immunoblot) in BMDM; details: CsA 1 μM, VBIT-4 10 μM or FEN1-IN-4 10 μM 16 hrs
# Description: as §1
# Whole cell lysates were prepared in RIPA buffer (25 mM Tris-HCl pH 7.6, 150 mM NaCl, 1% NP-40, 1% sodium deoxycholate, 0.1% SDS) containing a protease inhibitor cocktail and a phosphatase inhibitor cocktail. Protein concentrations were determined using BCA Protein Assay Kit. Equal amounts of protein were separated by SDS-PAGE and transferred onto PVDF membranes, blocked in 5% BSA in 1×TBST for 1 h and incubated with primary antibodies overnight. Secondary antibodies were added for 1 h and detection was performed using Clarity Western ECL Substrate.
# BMDM were fixed in 4% paraformaldehyde (PFA), permeabilized in 0.2% Triton X-100,and blocked in 1×PBS supplemented with 3% BSA. […] Nuclei were counterstained with DAPI.
# BMDM [10] = test: mtDNA fragmentation (agarose gel of cytosolic and mitochondrial DNA) in BMDM; assay type: cell-based, mouse; details: FEN1-IN-4 10 μM 16 h, LPS-primed, ATP
# Description: To analyze DNA fragmentation and extrusion in mitochondrial and cytosolic fractions, BMDM (15000,000 cells per group) were stimulated as indicated and fractionalized as above. […] Cytosolic, mitochondrial or nuclear DNAs were purified using AllPrep DNA/RNA Mini Kit according to manufacturer's instructions and analyzed on 1% agarose gels stained with ethidium bromide.
# BMDM [11] = test: mtROS (MitoSOX) in BMDM; details: LPS-primed BMDM, compound pretreatment 16 h, ATP or nigericin
# Description: as §1
# Mitochondrial membrane potential was measured using TMRM according to manufacturer's instructions. Briefly, BMDM were primed or not with LPS for 4 h, and further stimulated with ATP or nigericin for 60 minutes. Cells were incubated with 200 nM TMRM for 30 minutes at 37° C. After washing twice, fluorescence intensity was determined per manufacturer's instructions using a FilterMax F5 multimode plate reader (Molecular Devices). Mitochondrial reactive oxygen species (mtROS) were measured using MitoSOX (Invitrogen) as described (Xian et al., 2021). BMDM treated as indicated were loaded with 4 μM MitoSOX for 20 minutes. After washing with PBS twice, cells were resuspended in PBS and counted. Equal numbers of cells from different treatment groups were then plated onto 96-well plates for fluorescence reading. To quantify [Ca^2+]m by 5 μM Rhod-2 or intracellular Ca^2+ intensity by 1 μM Fluo-4, BMDM treated as indicated were loaded with the respective dyes according to manufacturer's instructions for 30 minutes. After washing twice, fluorescence intensity was determined using a FilterMax F5 multimode plate reader (Molecular Devices). To analyze mPTP opening by calcein-quenching assay, BMDM treated as indicated were loaded with calcein at 2 μM and CoCl2 at 160 μM for 30 minutes at 37° C. according to manufacturer's instructions. After washing twice, fluorescence intensity was determined per with a FilterMax F5 multimode plate reader (Molecular Devices).
# [12] = FEN1-IN-4 40 mg/kg 16 h prior to i.p. alum 1 mg, exudate 4 h later
# [13] = FEN1-IN-4 40 mg/kg 16 h prior to i.p. alum, 16 h
structure (smiles),measurement,setting,value
O=c1c2ccccc2n(CC2CC2)c(=O)n1O [FEN1-IN-4],cytosolic mtDNA release,BMDM [1],abrogated
same,NLRP3 inflammasome activation (Casp1 activation and mature IL-1β secretion),NLRP3 inflammasome [2],dose-dependent inhibition
same,immunostimulatory activity of DNA secreted by treated donor BMDM,BMDM [3],inhibited
same,cytosolic Ox-mtDNA (release),BMDM [4],abrogated
same,LPS-stimulated mtDNA synthesis (total mtDNA),BMDM [5],did not affect
same,alum-induced NLRP3 inflammasome-dependent IL-1β production in vivo (peritoneal IL-1β),NLRP3 inflammasome [6]; [12],inhibited
same,peritoneal TNF secretion in vivo,NLRP3 inflammasome [6]; [12],without an effect
same,monocyte infiltration (peritoneal),NLRP3 inflammasome [6]; [13],reduced
same,neutrophil infiltration (peritoneal),NLRP3 inflammasome [6]; [13],reduced
same,cell-free mtDNA release,BMDM [7],inhibited
same,ccf-mtDNA secretion into peritoneal exudates,[8],inhibited
same,Ox-mtDNA secretion into peritoneal exudates,[8]; Fpg-sensitive qPCR,inhibited
same,Ox-mtDNA generation (8-OH-dG in mitochondrial mtDNA),BMDM [9],no effect
same,formation of Ser^365 phosphorylated STING puncta,"STING; LPS-primed BMDM, ATP or nigericin",diminished
same,ATP-induced STING Ser^365 phosphorylation (immunoblot) in Nlrp3−/− BMDM,"STING; LPS-primed Nlrp3−/− BMDM, ATP",completely blocked
same,mtDNA fragmentation,BMDM [10],abrogated
same,mtROS production,BMDM [11],no effect
